Results on two compounds are retold here after ChEMBL document CHEMBL2407027, “(3R,4S,5R,6R,7S)-3,4,5,7-Tetrahydroxyconidine, an azetidine analogue of 6,7-diepicastanospermine and a conformationally constrained d-deoxyaltronojirimycin, from l-arabinose” (Bioorg Med Chem, 2013).

Structures are written as SMILES. pIC50: −log10 of the molar value.

The subject of one assay is Rhizopus. The assay can be described thus: Inhibition of rhizopus amyloglucosidase at 1000 uM.
The next assay relates to Escherichia coli. The assay can be described thus: Inhibition of Escherichia coli beta-glucuronidase at 1000 uM.
For assay [1], the target named is T1, Tissue alpha-L-fucosidase (Bos taurus) (UniProt Q2KIM0).
T1 sequence (whole entry): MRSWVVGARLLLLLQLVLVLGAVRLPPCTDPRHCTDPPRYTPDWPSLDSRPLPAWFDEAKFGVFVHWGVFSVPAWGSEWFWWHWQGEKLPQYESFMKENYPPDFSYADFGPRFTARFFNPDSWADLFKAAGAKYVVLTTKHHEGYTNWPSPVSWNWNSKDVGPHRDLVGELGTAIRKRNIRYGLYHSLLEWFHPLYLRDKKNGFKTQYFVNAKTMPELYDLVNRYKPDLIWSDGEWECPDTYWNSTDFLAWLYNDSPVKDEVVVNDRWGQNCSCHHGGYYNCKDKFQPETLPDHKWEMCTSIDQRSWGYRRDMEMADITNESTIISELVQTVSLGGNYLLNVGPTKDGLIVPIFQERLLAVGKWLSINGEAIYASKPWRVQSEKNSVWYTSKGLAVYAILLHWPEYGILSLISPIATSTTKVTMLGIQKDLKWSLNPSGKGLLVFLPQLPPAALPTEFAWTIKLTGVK
The assay can be described thus: Inhibition of bovine alpha-L-fucosidase at 1000 uM.

For a further assay, the system named is Penicillium decumbens. As to the kind of experiment: Inhibition of Penicillium decumbens alpha-L-rhamnosidase at 1000 uM.
The target in assay [2] is T2, Glucosylceramidase (Bos taurus) (UniProt Q2KHZ8).
T2 sequence (whole entry): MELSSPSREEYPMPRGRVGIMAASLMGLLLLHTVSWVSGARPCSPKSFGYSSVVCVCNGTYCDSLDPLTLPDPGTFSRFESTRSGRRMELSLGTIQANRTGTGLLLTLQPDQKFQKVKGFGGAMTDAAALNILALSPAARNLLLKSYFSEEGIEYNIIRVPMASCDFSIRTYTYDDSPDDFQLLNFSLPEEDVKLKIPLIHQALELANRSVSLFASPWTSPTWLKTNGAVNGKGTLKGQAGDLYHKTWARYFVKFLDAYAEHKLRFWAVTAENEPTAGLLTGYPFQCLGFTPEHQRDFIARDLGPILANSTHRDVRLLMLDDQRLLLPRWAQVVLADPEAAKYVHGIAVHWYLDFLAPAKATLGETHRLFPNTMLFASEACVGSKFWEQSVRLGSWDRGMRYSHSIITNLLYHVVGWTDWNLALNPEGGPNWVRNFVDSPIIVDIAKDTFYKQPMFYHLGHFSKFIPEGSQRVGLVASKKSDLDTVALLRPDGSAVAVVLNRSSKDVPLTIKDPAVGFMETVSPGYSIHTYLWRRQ
As to the kind of experiment: Inhibition of bovine liver beta-glucosidase at 1000 uM.

Assay [3] addresses T3, Tissue alpha-L-fucosidase (Bos taurus, UniProt Q2KIM0).
T3 sequence (Q2KIM0 whole entry): T1 sequence (whole entry)
As to the kind of experiment: Inhibition of bovine alpha-L-fucosidase.

The term inhibition denotes the drop in the measured response relative to a control, in per cent. For `O=C1CC[C@H](O)[C@H]2[C@@H](O)CN12`, the inhibition came out at 3.8% with Rhizopus; 8.9% in the assay on Escherichia coli; 0% in assay [1]; 11.1% with Penicillium decumbens; 14.9% in assay [2].
As a reminder, the pIC50 is the IC50 on a negative log10 scale, so that one unit is a factor of ten. A higher pIC50 goes with a low IC50. `OC[C@H]1NC[C@@H](O)[C@H](O)[C@@H]1O`: the inhibition in the assay on Rhizopus was determined as 7%; in the assay on Escherichia coli, 0%; with Penicillium decumbens, 2.1%; in assay [2], 10.9%. The compound further showed a negative-log IC50 (pIC50) in assay [3] of 3.71.
